In US8435978B2, “Substituted sulfonamide compounds” (Gruenenthal GmbH, priority 2006, dated 2013):

How the values were obtained:
human B1R receptor = biological target: T1, human B1R receptor (Homo sapiens, UniProt P46663); assay: Functional study on the bradykinin receptor 1 (B1R), FLIPR Ca2+ assay, hB1R cells; format: cell-based; conditions: CHO-K1, test substance 10 μM, agonist Lys-Des-Arg9-bradykinin 0.5 nM, % inhibition compared with the maximum achievable inhibition, read-out: B1R Antagonism, human [10 μM] % Inhibition
T1 construct: host or cells: CHO K1 cells (Chinese hamster ovary), stably transfected
T1 sequence (P46663 1-353): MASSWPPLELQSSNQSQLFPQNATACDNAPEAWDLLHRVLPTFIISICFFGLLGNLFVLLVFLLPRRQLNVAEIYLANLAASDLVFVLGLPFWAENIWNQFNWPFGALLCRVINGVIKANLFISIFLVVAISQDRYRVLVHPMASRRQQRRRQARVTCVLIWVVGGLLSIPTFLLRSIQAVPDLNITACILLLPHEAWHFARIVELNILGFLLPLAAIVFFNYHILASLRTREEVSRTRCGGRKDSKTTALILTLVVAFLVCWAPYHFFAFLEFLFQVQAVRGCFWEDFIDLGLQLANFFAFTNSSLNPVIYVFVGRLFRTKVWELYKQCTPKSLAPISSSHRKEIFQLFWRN
Protocol: (§1) The agonistic or antagonistic action of substances can be quantified on the bradykinin receptor 1 (B1R) of the species human and rat with ectopically expressing cell lines (CHO K1 cells) and with the aid of a Ca^2+-sensitive dye (Fluo-4) using a fluorescent imaging plate reader (FLIPR). The indication in % activation is based on the Ca^2+ signal after addition of Lys-Des-Arg^9-bradykinin (0.5 nM) or Des-Arg^9-bradykinin (100 nM). Antagonists result in a suppression of the Ca^2+ influx following administration of the agonist. The % inhibition in comparison with the maximum achievable inhibition is indicated.
(§2) The agonistic or antagonistic action of substances can be determined on the bradykinin receptor 1 (B1R) of the species human and rat using the following assay. According to this assay, the Ca^2+ influx through the channel is quantified with the aid of a Ca^2+-sensitive dye (type Fluo-4, Molecular Probes Europe BV, Leiden, Netherlands) using a Fluorescent Imaging Plate Reader (FLIPR, Molecular Devices, Sunnyvale, USA).
(§3) Chinese hamster ovary cells (CHO K1 cells) which have been stably transfected with the human B1R gene (hB1R cells, Euroscreen s.a., Gosselies, Belgium) or with the B1R gene of the rat (rB1R cells, Axxam, Milan, Italy) are used. For functional studies, the cells are plated out on black 96-well plates having a clear base (BD Biosciences, Heidelberg, Germany) in a density of 20,000-25,000 cells/well. The cells are incubated overnight at 37° C. and with 5% CO2 in culture medium (hB1R cells: Nutrient Mixture Ham's F12, Gibco Invitrogen GmbH, Karlsruhe, Germany; rB1R cells: D-MEM/F12, Gibco Invitrogen GmbH, Karlsruhe, Germany), with 10 vol. % FBS (fetal bovine serum, Gibco Invitrogen GmbH, Karlsruhe, Germany). On the following day, the cells are loaded for 60 minutes at 37° C. with 2.13 μM Fluo-4 (Molecular Probes Europe BV, Leiden, Netherlands) in HBSS buffer (Hank's buffered saline solution, Gibco Invitrogen GmbH, Karlsruhe, Germany) […] (Sigma-Aldrich, Taufkirchen, Germany) and 10 mM HEPES (Sigma-Aldrich, Taufkirchen, Germany). The plates are then washed twice with HBSS buffer, and HBSS buffer additionally containing 0.1% BSA (bovine serum albumin; Sigma-Aldrich, Taufkirchen, Germany), 5.6 mM glucose and 0.05% gelatin (Merck KGaA, Darmstadt, Germany) is added to the plates. After incubation for a further 20 minutes at room temperature, the plates are inserted into the FLIPR for Ca^2+ measurement. The Ca^2+-dependent fluorescence is measured before and after the addition of substances (λex=488 nm, λem=540 nm). Quantification is carried out by measuring the highest fluorescence intensity (FC, fluorescence counts) over time.
(§4) The FLIPR protocol consists of 2 substance additions. Test substances (10 μM) are first pipetted onto the cells and the Ca^2+ influx is compared with the control (hB1R: Lys-Des-Arg^9-bradykinin 0.5 nM; rB1R: Des-Arg^9-bradykinin 100 nM). This gives the activation in %, based on the Ca^2+ signal after addition of Lys-Des-Arg^9-bradykinin (0.5 nM) or Des-Arg^9-bradykinin (100 nM).
(§5) After 10 minutes' incubation, 0.5 nM Lys-Des-Arg^9-bradykinin (hB1R) or 100 nM Des-Arg^9-bradykinin (rB1R) are applied, and the influx of Ca^2+ is likewise determined. Antagonists lead to suppression of the Ca^2+ influx. The % inhibition compared with the maximum achievable inhibition is calculated.

B1R receptor of the rat = biological target: T2, B1R receptor of the rat (Rattus norvegicus, UniProt P97583); assay: Functional study on the bradykinin receptor 1 (B1R), FLIPR Ca2+ assay, rB1R cells; format: cell-based; conditions: CHO-K1, test substance 10 μM, agonist Des-Arg9-bradykinin 100 nM, % inhibition compared with the maximum achievable inhibition, read-out: B1R Antagonism, rat [10 μM] % Inhibition
T2 construct: host or cells: CHO K1 cells (Chinese hamster ovary), stably transfected
T2 sequence (P97583 1-337): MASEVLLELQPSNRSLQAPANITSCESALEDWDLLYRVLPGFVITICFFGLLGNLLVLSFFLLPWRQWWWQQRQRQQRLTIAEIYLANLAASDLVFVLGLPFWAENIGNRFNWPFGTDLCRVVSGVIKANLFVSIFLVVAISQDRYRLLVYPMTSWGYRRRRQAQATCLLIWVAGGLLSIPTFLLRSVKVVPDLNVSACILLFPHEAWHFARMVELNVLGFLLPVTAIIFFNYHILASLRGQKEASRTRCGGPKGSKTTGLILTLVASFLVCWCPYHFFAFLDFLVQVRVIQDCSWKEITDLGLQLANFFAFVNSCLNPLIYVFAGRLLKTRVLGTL
Protocol: as §1, §2, §3, §4, §5

| SMILES | inhibition at 10 µM (human B1R receptor) [%] | inhibition at 10 µM (B1R receptor of the rat) [%] |
| --- | --- | --- |
| COc1cc(C)c(S(=O)(=O)N2Cc3ccccc3CC2COCC(=O)N2CCN(CCCN(C)C)CC2)c(C)c1C (stereo not shown) [Example 560, 1-(4-(3-(dimethylamino)propyl)piperazin-1-yl)-2-((2-(4-methoxy-2,3,6-trimethylphenylsulfonyl)-1,2,3,4-tetrahydroisoquinolin-3-yl)methoxy)ethanone] | 102 | 99.3 |
| CC(C)N(CCN1CCN(C(=O)COCC2CCCCN2S(=O)(=O)c2c(Cl)cccc2Cl)CC1)C(C)C (stereo not shown) [Example 281, 2-((1-(2,6-dichlorophenylsulfonyl)piperidin-2-yl)methoxy)-1-(4-(2-(diisopropylamino)ethyl)piperazin-1-yl)ethanone] | 104 | 92.4 |
| CN1CCC(N2CCN(C(=O)COCC3CCCCN3S(=O)(=O)c3ccc(Cl)c(Cl)c3)CC2)CC1 (stereo not shown) [Example 32, 2-[1-(3,4-dichloro-phenylsulfonyl)-piperidin-2-ylmethoxy]-1-[4-(1-methyl-piperidin-4-yl)-piperazin-1-yl]-ethanone] | 83.3 | 63.3 |
| O=C(COCC1CCCN1S(=O)(=O)c1c(Cl)cccc1Cl)N1CCN(Cc2ccc(Cl)cc2)CC1 (stereo not shown) [Example 359, 1-(4-(4-chlorobenzyl)piperazin-1-yl)-2-((1-(2,6-dichlorophenylsulfonyl)pyrrolidin-2-yl)methoxy)ethanone] | 98.6 | 103 |
| O=C(COCC1CCCCN1S(=O)(=O)c1c(Cl)cccc1Cl)N1CCCC1c1cccnc1 (stereo not shown) [Example 497, 2-((1-(2,6-dichlorophenylsulfonyl)piperidin-2-yl)methoxy)-1-(2-(pyridin-3-yl)pyrrolidin-1-yl)ethanone] | 66 | 101 |
| COc1cc(C)c(S(=O)(=O)N2CCCC2COCC(=O)N2CCCCC2Cc2ccccn2)c(C)c1 (stereo not shown) [Example 449, 2-((1-(4-methoxy-2,6-dimethylphenylsulfonyl)pyrrolidin-2-yl)methoxy)-1-(2-(pyridin-2-ylmethyl)piperidin-1-yl)ethanone] | 90.8 | 99.7 |
| COc1cc(C)c(S(=O)(=O)N2CCCC2COCC(=O)NCc2ccc(N3CCN(C)CC3)cc2)c(C)c1 (stereo not shown) [Example 18, 2-[1-(4-methoxy-2,6-dimethyl-phenylsulfonyl)-pyrrolidin-2-ylmethoxy]-N-[4-(4-methyl-piperazin-1-yl)-benzyl]-acetamide] | 95.3 | 110 |
| O=C(COCC1CCCCN1S(=O)(=O)c1c(Cl)cccc1Cl)N1CCN(Cc2ccc(Cl)c(Cl)c2)CC1 (stereo not shown) [Example 405, 1-(4-(3,4-dichlorobenzyl)piperazin-1-yl)-2-((1-(2,6-dichlorophenylsulfonyl)piperidin-2-yl)methoxy)ethanone] | 98.6 | 100 |
| CN(CCC1CCC(N2CCCC2)CC1)C(=O)COCC1CCc2ccccc2N1S(=O)(=O)c1ccc(Cl)c(Cl)c1 (stereo not shown) [Example 216, 2-((1-(3,4-dichlorophenylsulfonyl)-1,2,3,4-tetrahydroquinolin-2-yl)methoxy)-N-methyl-N-(2-(4-(pyrrolidin-1-yl)cyclohexyl)ethyl)acetamide] | -10.1 | 4.48 |
| O=C(COCC1CCCCN1S(=O)(=O)c1c(Cl)cccc1Cl)N1CCN(c2ccc(C(F)(F)F)cn2)CC1 (stereo not shown) [Example 484, 2-((1-(2,6-dichlorophenylsulfonyl)piperidin-2-yl)methoxy)-1-(4-(5-(trifluoromethyl)pyridin-2-yl)piperazin-1-yl)ethanone] | 75.6 | 101 |
| COc1ccc(N2CCN(C(=O)COCC3CCCCN3S(=O)(=O)c3c(C)cc(OC)cc3C)CC2)cc1 (stereo not shown) [Example 290, 2-((1-(4-methoxy-2,6-dimethylphenylsulfonyl)piperidin-2-yl)methoxy)-1-(4-(4-methoxyphenyl)piperazin-1-yl)ethanone] | 104 | 92.9 |
| COc1cc(C)c(S(=O)(=O)N2CCCC2COCC(=O)N2CCN(Cc3ccc(Cl)c(Cl)c3)CC2)c(C)c1 (stereo not shown) [Example 349, 1-(4-(3,4-dichlorobenzyl)piperazin-1-yl)-2-((1-(4-methoxy-2,6-dimethylphenylsulfonyl)pyrrolidin-2-yl)methoxy)ethanone] | 101 | 103 |
| COc1cc(C)c(S(=O)(=O)N2CCCCC2COCC(=O)N2CCN(C3CCOCC3)CC2)c(C)c1 (stereo not shown) [Example 104, 2-((1-(4-methoxy-2,6-dimethylphenylsulfonyl)piperidin-2-yl)methoxy)-1-(4-(tetrahydro-2H-pyran-4-yl)piperazin-1-yl)ethanone] | 105 | 101 |
| CN(C(=O)COCC1CCCCN1S(=O)(=O)c1c(Cl)cc(C(F)(F)F)cc1Cl)[C@H]1CCN(Cc2ccccc2)C1 (stereo partly drawn) [Example 574, N—((S)-1-benzylpyrrolidin-3-yl)-2-((1-(2,6-dichloro-4-(trifluoromethyl)phenylsulfonyl)piperidin-2-yl)methoxy)-N-methylacetamide] | 90 |  |
| CN(C(=O)COCC1CCCCN1S(=O)(=O)c1ccccc1C(F)(F)F)[C@H]1CCN(Cc2ccccc2)C1 (stereo partly drawn) [Example 218, N—((S)-1-benzylpyrrolidin-3-yl)-N-methyl-2-((1-(2-(trifluoromethyl)phenylsulfonyl)piperidin-2-yl)methoxy)acetamide] | 100 |  |
| CN1CCN(C2CCN(C(=O)COCC3CCCCN3S(=O)(=O)c3csc4ccccc34)CC2)CC1 (stereo not shown) [Example 572, 2-((1-(benzo[b]thiophen-3-ylsulfonyl)piperidin-2-yl)methoxy)-1-(4-(4-methylpiperazin-1-yl)piperidin-1-yl)ethanone] |  | 99 |
| COc1ccc(S(=O)(=O)N2CCCCC2CCOCC(=O)N2CCN(CCc3ccccc3)CC2)cc1 (stereo not shown) [Example 91, 2-(2-(1-(4-methoxyphenylsulfonyl)piperidin-2-yl)ethoxy)-1-(4-phenethylpiperazin-1-yl)ethanone] | 48.8 |  |
| CN1CCC(CN2CCN(C(=O)COCC3CCCCN3S(=O)(=O)c3csc4ccccc34)CC2)CC1 (stereo not shown) [Example 573, 2-((1-(benzo[b]thiophen-3-ylsulfonyl)piperidin-2-yl)methoxy)-1-(4-((1-methylpiperidin-4-yl)methyl)piperazin-1-yl)ethanone] |  | 101 |
